Peptide text beside a SMILES is read from it. * marks the point of attachment. X1 = CSCC[C@H](NC(=O)[C@H](CC(C)C)NC(=O)CNC(=O)C(/C=C/[C@H](Cc1ccccc1)N*)(Cc1ccccc1)Cc1ccccc1)C(N)=O
Key:
[1] = Ability to inhibit substance P endopeptidase at concentration of 1.5 uM
[2] = Ability to inhibit substance P endopeptidase at concentration of 10 uM

SMILES | inhibition [1] | inhibition [2]
N[C@H](/C=C/C(CO)(Cc1ccccc1)Cc1ccccc1)Cc1ccccc1 | 50% | –
CSCC[C@H](NC(=O)[C@H](CC(C)C)NC(=O)CNC(=O)C(/C=C/[C@H](Cc1ccccc1)NC(=O)[C@H](CCC(N)=O)NC(=O)[C@H](CCC(N)=O)NC(=O)[C@@H]1CCCN1C(=O)[C@H](CCCCN)NC(=O)[C@@H]1CCCN1C(=O)[C@@H](N)CCCN=C(N)N)(Cc1ccccc1)Cc1ccccc1)C(N)=O (H-RPKPQQ-X1) | – | 50%

Reference: ChEMBL document CHEMBL1152037, “Novel peptidomimetics: inhibitors of substance P endopeptidase” (Bioorg Med Chem Lett, 1992)
